# Experimental data: patent US20250230226A1, “PLXDC1/PLXDC2 ACTIVATORS AND THEIR USE IN THE TREATMENT OF BLOOD VESSEL DISORDERS” (THE REGENTS OF THE UNIVERSITY OF CALIFORNIA, priority 2019, published 2025)
# Experiments:
# [1] = system: LL/2 lung cancer tumor endothelial cells; assay: Lung LL2 ex vivo model of tumor angiogenesis; assay type: cell-based, mouse; conditions: for Cell death: drug treatment for two days, ratio of red area to total endothelial cell area; for 48 hrs (morphology observations): LL/2 tumor endothelial cells; for cytotoxicity at 40 µM / cytotoxicity at 20 µM: Mus musculus, Endothelial cell, 48 h, read-out: Cell death
# Outline: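 LL2 mouse tumor fragments (~0.075 mm³) embedded in Matrigel and cultured in endothelial growth medium at 37 °C until endothelial outgrowth (~4 days) before treatment. Cell death assessed e.g. 48 h after drug by fluorescein diacetate (live)/propidium iodide (dead) staining and red/green fluorescence imaging.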
# [2] = system: CT26.CL25 colon cancer tumor endothelial cells; assay: Colon CT26 ex vivo model of tumor angiogenesis; assay type: cell-based, mouse; conditions: for cytotoxicity at 40 µM / cytotoxicity at 10 µM: Mus musculus, Endothelial cell, 48 h, read-out: Cell death
# Outline: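 Pieces of CT26 mouse tumor (~0.075 mm³) embedded in Matrigel and cultured in endothelial growth medium at 37 °C, 5% CO2 until endothelial outgrowth appeared (about 7 days), then treated. About 48 h after drug addition, live/dead staining with fluorescein diacetate and propidium iodide was imaged in green and red channels.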
SMILES,Cell death ([1]; 40 μm) [%],48 hrs (morphology observations after 48 hours) ([2]; Conc. 40 μm),cytotoxicity at 40 µM [2] [%],48 hrs (morphology observations) ([1]; 40 μm),48 hrs (morphology observations after 48 hours) ([2]; Conc. 10 μm),cytotoxicity at 10 µM [2] [%],cytotoxicity at 40 µM [1] [%],Cell death ([1]; 20 μm) [%],48 hrs (morphology observations) ([1]; 20 μm),cytotoxicity at 20 µM [1] [%]
CCc1ccc(S(=O)(=O)c2cnc3ccc(OC(F)(F)F)cc3c2N2CCC(CO)CC2)cc1 [Compound 48],60,0,10,–,–,–,–,–,–,–
CCCCOc1ccc(S(=O)(=O)c2cnc3ccc([S+](C)[O-])cc3c2N2CCC(N3CCC(O)(c4ccccc4)CC3)CC2)cc1 (stereo not shown) [Compound 238],–,–,–,*** (more than 50% but less than 100% of endothelial cells vesicularize in cell shape),0,10,–,–,–,–
CCCCOc1ccc(S(=O)(=O)c2cnc3ccc([S+](C)[O-])cc3c2N2CCC(N3CCCC(O)C3)CC2)cc1 (stereo not shown) [Compound 208],50,0,20,–,–,–,–,–,–,–
CCCCOc1ccc(S(=O)(=O)c2cnc3ccc(SC)cc3c2N2CCC(N3CCC(O)CC3)CC2)cc1 [Compound 162],70,*** (100% of endothelial cells vesicularize in cell shape),–,*** (more than 50% but less than 100% of endothelial cells vesicularize in cell shape),–,–,–,–,–,–
COc1ccc(S(=O)(=O)c2cnc3ccc(CC#N)cc3c2NN2CCN(C)CC2)cc1 [Compound 99],10,0,0,–,–,–,–,–,–,–
COc1ccc(S(=O)(=O)c2cnc3ccc(OC(F)(F)F)cc3c2N2CCC(N3CCCCC3)CC2)cc1 [Compound 43],100,*** (100% of endothelial cells vesicularize in cell shape),90,*** (more than 50% but less than 100% of endothelial cells vesicularize in cell shape),–,–,–,–,–,–
CCCCOc1ccc(S(=O)(=O)c2cnc3ccc(S(C)(=O)=O)cc3c2N2CCCN(C)CC2)cc1 [Compound 164],95,**** (100% of endothelial cells vesicularize in cell shape and look flattened in morphology (indicating disintegration of the cell body)),100,**** (100% of endothelial cells vesicularize in cell shape and look flattened in morphology (indicating disintegration of the cell body)),–,–,–,–,–,–
CCCCOc1ccc(S(=O)(=O)c2cnc3ccc(C(=O)OCC)cc3c2N2CCC(N3CCC(c4ccccc4)CC3)CC2)cc1 [Compound 215],–,0,20,0,–,–,30,–,–,–
COc1ccc(S(=O)(=O)c2cnc3ccc(OC(F)(F)F)cc3c2N2CCC(N3CCCCC3)CC2)cc1OC [Compound 56],20,0,30,* (50% or less of cells vesicularize in cell shape),–,–,–,–,–,–
CCCCOc1ccc(S(=O)(=O)c2cnc3ccc(OC(F)(F)F)cc3c2NN2CCN(C)CC2)cc1 [Compound 92],–,0,0,–,–,–,–,10,–,–
CCc1ccc(S(=O)(=O)c2cnc3ccc(OC(F)(F)F)cc3c2N2CCN(c3ccc(C#N)cc3)CC2)cc1 [Compound 45],–,0,0,–,–,–,10,–,–,–
CCCCOc1ccc(S(=O)(=O)c2cnc3ccc([S+](C)[O-])cc3c2N2CCCN(CCN3CCCCC3)CC2)cc1 (stereo not shown) [Compound 209],60,*** (100% of endothelial cells vesicularize in cell shape),90,* (50% or less of cells vesicularize in cell shape),–,–,–,–,–,–
CCCCCCCOc1ccc(S(=O)(=O)c2cnc3ccc([S+](C)[O-])cc3c2N2CCCN(CCN3CCCCC3)CC2)cc1 (stereo not shown) [Compound 255],–,–,–,–,0,0,–,10,* (50% or less of cells vesicularize in cell shape),–
CCCCOc1ccc(S(=O)(=O)c2cnc3ccc(C(=O)OCC)cc3c2N2CCC(N3CCC(O)CC3)CC2)cc1 [Compound 161],90,**** (100% of endothelial cells vesicularize in cell shape and look flattened in morphology (indicating disintegration of the cell body)),100,**** (100% of endothelial cells vesicularize in cell shape and look flattened in morphology (indicating disintegration of the cell body)),–,–,–,–,–,–
CCCCCCCOc1ccc(S(=O)(=O)c2cnc3ccc([S+](C)[O-])cc3c2N2CCC(N3CCN(CCO)CC3)CC2)cc1 (stereo not shown) [Compound 257],–,–,–,–,**** (100% of endothelial cells vesicularize in cell shape and look flattened in morphology (indicating disintegration of the cell body)),100,–,–,**** (100% of endothelial cells vesicularize in cell shape and look flattened in morphology (indicating disintegration of the cell body)),100
COc1ccc(S(=O)(=O)c2cnc3ccc(SC)cc3c2N2CCC(N3CCCCC3)CC2)cc1OC [Compound 121],50,*** (100% of endothelial cells vesicularize in cell shape),40,–,–,–,–,–,–,–
CCCCCCCOc1ccc(S(=O)(=O)c2cnc3ccc(SC)cc3c2N2CCC(N3CCCCC3)CC2)cc1 [Compound 219],60,*** (100% of endothelial cells vesicularize in cell shape),90,**** (100% of endothelial cells vesicularize in cell shape and look flattened in morphology (indicating disintegration of the cell body)),–,–,–,–,–,–
CCc1ccc(S(=O)(=O)c2cnc3ccc(C(=O)O)cc3c2N2CCC(O)CC2)cc1 [Compound 65],10,0,0,–,–,–,–,–,–,–
CCc1ccc(S(=O)(=O)c2cnc3ccc([N+](=O)[O-])cc3c2N2CCC(O)CC2)cc1 [Compound 75],80,0,0,–,–,–,–,–,–,–
CCN(CC)c1c(S(=O)(=O)c2ccc(OC)c(OC)c2)cnc2ccc(OC(F)(F)F)cc12 [Compound 68],80,** (more than 50% but less than 100% of endothelial cells vesicularize in cell shape),50,*** (more than 50% but less than 100% of endothelial cells vesicularize in cell shape),–,–,–,–,–,–
CCOC(=O)c1ccc2ncc(S(=O)(=O)c3ccc(CC)cc3)c(-n3cncn3)c2c1 [Compound 80],–,–,–,–,*** (100% of endothelial cells vesicularize in cell shape),100,–,–,*** (more than 50% but less than 100% of endothelial cells vesicularize in cell shape),100
COc1ccc(S(=O)(=O)c2cnc3ccc(OC(F)(F)F)cc3c2-n2cncn2)cc1OC [Compound 89],–,–,–,–,*** (100% of endothelial cells vesicularize in cell shape),100,–,–,*** (more than 50% but less than 100% of endothelial cells vesicularize in cell shape),100
N#Cc1ccc(S(=O)(=O)c2cnc3ccc(OC(F)(F)F)cc3c2N2CCC(N3CCCCC3)CC2)cc1 [Compound 54],50,0,10,–,–,–,–,–,–,–
CCc1ccc(S(=O)(=O)c2cnc3ccc(C(=O)O)cc3c2N2CCCN(C)CC2)cc1 [Compound 66],10,0,0,–,–,–,–,–,–,–
CCCCOc1ccc(S(=O)(=O)c2cnc3ccc(OC(F)(F)F)cc3c2N2CCCN(C)CC2)cc1 [Compound 151],–,**** (100% of endothelial cells vesicularize in cell shape and look flattened in morphology (indicating disintegration of the cell body)),100,**** (100% of endothelial cells vesicularize in cell shape and look flattened in morphology (indicating disintegration of the cell body)),–,–,100,–,–,–
CCc1ccc(S(=O)(=O)c2cnc3ccc(OC(F)(F)F)cc3c2N2CCC(N3CCC(O)CC3)CC2)cc1 [Compound 102],–,0,5,–,–,–,–,–,0,20
CCCCOc1ccc(S(=O)(=O)c2cnc3ccc(SC)cc3c2N2CCCN(C)CC2)cc1 [Compound 160],–,**** (100% of endothelial cells vesicularize in cell shape and look flattened in morphology (indicating disintegration of the cell body)),100,**** (100% of endothelial cells vesicularize in cell shape and look flattened in morphology (indicating disintegration of the cell body)),–,–,100,–,–,–
CCc1ccc(S(=O)(=O)c2cnc3ccc(OC(F)(F)F)cc3c2-n2ccnn2)cc1 [Compound 110],–,** (more than 50% but less than 100% of endothelial cells vesicularize in cell shape),10,–,–,–,–,95,*** (more than 50% but less than 100% of endothelial cells vesicularize in cell shape),–
COc1ccc(S(=O)(=O)c2cnc3cc(OC)c(OC)cc3c2-n2cncn2)cc1OC [Compound 96],–,–,–,–,0,0,–,–,–,0
COc1ccc(S(=O)(=O)c2cnc3ccc([N+](=O)[O-])cc3c2NN2CCN(C)CC2)cc1 [Compound 94],20,0,0,–,–,–,–,–,–,–
